Measurements as given in patent US10030012B2, “Piperidin-1-yl and azepin-1-yl carboxylates as muscarinic M4 receptor agonists” (Heptares Therapeutics Limited, priority 2013, dated 2018).

Tests used:
human M4 receptor = human M4 receptor (Homo sapiens (Human), UniProt P08173); test: In vitro M4 functional assay (intracellular calcium, FLiPR Tetra); format: cell-based
Summary of the method: (§1)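 CHOK1 cells stably expressing human M4 or M2 with Gα16, loaded with Calcium 5 dye 45 min at 37° C in HBSS/HEPES/BSA/probenecid pH 7.4. Fluorescence read 5 min after compound; EC50 from ten-point half-log curves, duplicate wells, four-parameter fit; efficacy relative to EC100 acetylcholine.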

human M2 receptor = human M2 receptor (Homo sapiens (Human), UniProt P08172); test: In vitro M2 functional assay (intracellular calcium, FLiPR Tetra); format: cell-based; settings: CHOK1 cells stably expressing human M2 receptor and Gα16; calcium flux; No Response = no significant response of calcium flux indicative of agonism
Chain of human M2 receptor (P08172 whole entry): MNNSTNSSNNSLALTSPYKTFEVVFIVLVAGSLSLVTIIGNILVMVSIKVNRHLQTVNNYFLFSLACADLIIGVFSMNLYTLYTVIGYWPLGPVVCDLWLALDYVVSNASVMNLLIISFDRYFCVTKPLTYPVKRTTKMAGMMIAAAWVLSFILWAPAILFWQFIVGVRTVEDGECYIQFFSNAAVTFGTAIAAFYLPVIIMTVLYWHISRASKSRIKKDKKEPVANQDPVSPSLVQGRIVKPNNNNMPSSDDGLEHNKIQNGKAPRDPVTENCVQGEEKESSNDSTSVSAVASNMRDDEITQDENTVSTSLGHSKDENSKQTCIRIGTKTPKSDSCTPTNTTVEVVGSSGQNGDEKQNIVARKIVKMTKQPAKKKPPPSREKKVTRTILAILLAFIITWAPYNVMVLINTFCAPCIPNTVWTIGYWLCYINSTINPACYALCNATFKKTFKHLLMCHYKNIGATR
Summary of the method: as §1

Chain of human M4 receptor (P08173 whole entry): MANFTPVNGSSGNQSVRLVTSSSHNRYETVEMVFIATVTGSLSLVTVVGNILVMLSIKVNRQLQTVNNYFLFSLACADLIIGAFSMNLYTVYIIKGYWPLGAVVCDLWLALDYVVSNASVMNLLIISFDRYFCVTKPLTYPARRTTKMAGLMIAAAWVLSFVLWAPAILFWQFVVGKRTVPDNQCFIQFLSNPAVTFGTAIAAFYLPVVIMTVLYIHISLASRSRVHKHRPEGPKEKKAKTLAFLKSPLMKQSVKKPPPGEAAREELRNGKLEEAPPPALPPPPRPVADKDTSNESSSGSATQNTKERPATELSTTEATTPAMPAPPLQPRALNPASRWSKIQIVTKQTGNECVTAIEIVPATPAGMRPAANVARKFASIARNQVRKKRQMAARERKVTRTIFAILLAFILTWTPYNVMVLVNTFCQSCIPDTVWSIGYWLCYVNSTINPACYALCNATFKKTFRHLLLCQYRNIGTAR

## CCOC(=O)N1CCC[C@@H](N2CCC(c3cccnc3OC)CC2)CC1 [Example 86, Ethyl (4R)-4-[4-(2-methoxypyridin-3-yl)piperidin-1-yl]azepane-1-carboxylate]
Human M4 receptor; CHOK1 cells stably expressing human M4 receptor and Gα16, calcium flux
  EC50: 310 nM
Human M4 receptor; relative efficacy to an EC100 concentration of acetylcholine, read-out: M4 % RE
  Emax: 67%
Human M2 receptor
  M2 EC50: No response
